How the values were obtained:
[1] = tested on: respiratory syncytial virus Long strain; assay: Antiviral activity against respiratory syncytial virus in HEp-2 cells (MTT cell protection); type: cell-based
Description: The antiviral activity of these compounds against respiratory syncytial virus was determined in HEp-2 (ATCC CCL 23) cells that were seeded in 96 well microtiter plates at 1.5×10^4 cells/100 μL/well in DMEM (Dulbecco's Modified Eagle's Medium) supplemented with penicillin, streptomycin, glutamine, and 10% fetal bovine serum. The cells were incubated overnight at 37° C., the culture medium was removed, and cells were infected (100 μL volume in medium containing 2% fetal bovine serum) with respiratory syncytial virus Long strain at 5000 plaque forming units/mL. The compounds, 100 μL at appropriate dilution, were added to the cells 1 hour post infection. After incubation for 4 days at 37° C., the plates were stained with MTT solution (3-[4,5-dimethlythiazol-2-yl]-2,5-diphenyltetrazolium bromide) and incubated for 4 hours at 37° C. The media was aspirated from the cells and 100 μL/well of acidified isopropanol (per liter: 900 mL isopropanol, 100 mL Triton×100, and 4 mL conc. HCl) was added. Plates were incubated for 15 minutes at room temperature with shaking, and an optical density (OD 540) reading at 540 nanometer (nm) was obtained. The optical density reading is proportional to the number of viable cells. The increase in the number of viable cells reflects the protective, antiviral activity of the compound. […]

Row | melting point | EC50 ([1]; human respiratory syncytial virus, HEp-2 cells infected with RSV Long strain, compound added 1 hour post infection, 4 days, read-out: EC50 (concentration that produces 50% cell protection)) | SMILES | cell protection ([1]; at 2.5 μg/mL (corresponding to 10.2 μM), HEp-2 cells, RSV Long strain)
1 | > 200 °C | – | O=c1[nH]c2ccccc2n1Cc1nc2ccccc2n1CCn1cnnn1 [Compound 184] | –
2 | – | 3 µM | NC(=O)c1ncn([C@@H]2O[C@H](CO)[C@@H](O)[C@H]2O)n1 [Ribavirin] | 100%
